Assay results as given in paper PMC12267471, “Discovery of natural scaffolds as HER2 inhibitors for breast cancer: virtual screening, molecular dynamics, and biological characterization with selectivity profiling” (Scientific Reports, 2025).
Read-outs that look alike come from different tables or passages of the source.

Tests used:
HER2 kinase = target: T1, HER2 kinase (Homo sapiens, UniProt P04626); assay: Z'-LYTE Kinase Assay-Tyr6 Peptide biochemical HER2 kinase assay; settings: cell-free Z'-LYTE, Tyr6 peptide substrate; read-out: IC50, inhibition of ATP-induced HER2 phosphorylation
T1 construct: HER2 purified kinase domain (amino acids 676–1255); purchased Thermo Fischer Scientific PV3590
From the text: The Z’-LYTE™ Kinase Assay-Tyr6 Peptide kit (Thermo Fischer Scientific™, Madison, WI, USA) was employed to evaluate the potential of selected natural products to suppress the catalytic activity of HER2 kinase. The assay adopts a Fluorescence Resonance Energy Transfer (FRET) based method in a cell-free coupled-enzyme format with no use of antibodies. The assay method mainly relies on the difference in sensitivity of phosphorylated and non-phosphorylated peptides to proteolytic cleavage. This method is a ratio metric method that calculates the Emission Ratio of donor emission divided by acceptor emission after excitation of the donor fluorophore at 400 nm. In this assay, 20 µL/well reactions containing kinase buffer, 200 µM ATP, 4µM Z’-LYTE Tyr6 Peptide substrate, 2500 ng/mL HER2 kinase, and drugs of interest functioning as inhibitors were set up in 96-well plates. Each well received 10 µL of site-specific protease development solution after one hour of room temperature incubation. The incubation continued for a full hour. Following process termination, the kinase inhibitory activity and/or peptide substrate cleavage status were assessed using a plate reader (BioTek FLx800™) to measure the ratio of fluorescence signal at 445 nm (coumarin)/520 nm (fluorescein).
The IC50 value for each natural product was computed using XLfit® 4.1 software (ID Business Solutions Inc. (IDBS), Emeryville CA), applying non-linear regression of log concentration against the percentage of HER2 inhibition.
Utilizing the Z’-LYTE™ Kinase Assay-Tyr6 Peptide kit as a cell-free system for evaluating the inhibitory activity of HER2, the five natural products were evaluated for their capacity to inhibit HER2 phosphorylation. Since its kinase catalysis is necessary for all HER2-mediated activities, we attempted at this initial stage to validate the HER2 inhibitory ability of the five in silico hits directly on the HER2 purified kinase domain (amino acids 676–1255), that was in vitro phosphorylated to attain the maximum level of intrinsic kinase activity. In this assay, the substrate was Z’-LYTE™ Tyr6 peptide; thus, the changes in its phosphorylation can directly correlate with the HER2 kinase activity. In the meantime, tyrphostin AG 1478 was used as a positive control to ensure the validity of the assay. Lapatinib (Tykerb®) was included as a second positive control to benchmark virtual hits’ performance against clinically approved standards.

[1] = test system: HER2 protein in BT-474 cells; assay: Western blot of p-HER2 and t-HER2, BT-474; assay type: cell-based, human; settings: BT-474, 5 µM, 72 h
Protocol: SKBR3 and BT-474 were plated in RPMI-1640 media, washed, and incubated for 72 h. They were lysed in cold lysis buffer, frozen, collected, sonicated, and centrifuged for 10 min under cooling. The stacking and resolving solutions for polyacrylamide gels were prepared using various solutions, including 30% acrylamide, 0.5 M Tris, 10% SDS, 10% Ammonium persulfate, and 0.005 mL TEMED in 3.4 mL water and 3.3 mL water respectively. The ReadyPrepTM protein extraction kit was used to extract total protein from samples. Protein concentration was determined using the Bradford Protein Assay Kit. Samples were mixed with Laemmli sample buffer, pH adjusted and boiled for five minutes at 95 °C before loading onto SDS-polyacrylamide gels. Proteins in each sample were mixed, boiled, and loaded onto SDS-polyacrylamide gels. They were separated using the SDS-PAGE method, using the TGX Stain-Free™ FastCast™ Acrylamide Kit and a Cleaver electrophoresis unit. Proteins were transferred from gels to PVDF membranes using transfer sandwiches. Filter paper, membrane, gel, and filter paper were stacked in a sandwich. Gels were blotted onto PVDF membranes via electrophoresis using a Bio-Rad Semi-dry Electroblotter for 30 min. […] The intensity of each band was quantitated using ImageLab.

BT-474 cells [2] = assay: Annexin V-FITC/PI apoptosis detection, BT-474; assay type: cell-based, human; settings: BT-474, 3.5 µM, 48 h
Protocol: To evaluate the induction of apoptosis, the translocation of phosphatidylserine to the outer cell membrane, as a hallmark of early apoptosis, was detected by the binding of annexin V, using the Annexin V-FITC Early Apoptosis Detection Kit (BD BioVision). Cells were seeded at a density of 5 × 10^5 cells per 100 mm culture plate and allowed to adhere overnight. […] At the end of the treatment period, cells were harvested by trypsinization, washed twice with ice-cold PBS, and resuspended in 500 µL of chilled 1X Annexin V Binding Buffer. To each sample, 5 µL of Annexin V-FITC conjugate and 5 µL of propidium iodide (PI, 50 µg/mL) were added. The cell suspensions were incubated for 5 minutes on ice in the dark to allow for staining.
Flow cytometric analysis was performed using excitation at 488 nm and emission at 530 nm for FITC detection (FL1 channel) and phycoerythrin emission settings for PI detection (FL2 channel). Data acquisition and analysis were facilitated by Cell Quest software (BD Biosciences), with dot plots divided into four quadrants to distinguish different cell populations: lower left (LL) for viable, non-apoptotic cells (negative for both annexin V and PI); lower right (LR) for early apoptotic cells (annexin V-positive, PI-negative); upper left (UL) for dead or necrotic cells (PI-positive, annexin V-negative); and upper right (UR) for late apoptotic cells (double-positive). All assays were conducted in triplicate to ensure reliability and reproducibility.

BT-474 cells [3] = assay: MTT proliferation assay, BT-474; assay type: cell-based, human; settings: Homo sapiens
SKBR3 cells = assay: Transwell cell migration assay, SKBR3; assay type: cell-based, human; settings: SKBR3, 6.4 µM, 24 h
Protocol: The in vitro transwell migration assay was conducted using an HTS-96 transwell permeable support chamber with 8 μm pores (Corning, USA) equipped with polyvinylpyrrolidone-free polycarbonate (PVPF) filters. […] The plate was incubated for 24 h at 37 °C. Then, the transwell inserts were incubated in the receiver plate with Calcein AM/cell dissociation solution at 37 °C in 5% CO2 incubator for 1 h, followed by measuring the fluorescence using a fluorescence plate reader with 485 nm excitation and 520 nm emission filter package. The relative fluorescence units were converted to cell count using a standard curve. The number of cells that moved to the lower side of the filter was used to assess migratory characteristics. The experiment in both cell lines was conducted in triplicate and data are presented as the mean ± SD.

T1 sequence (P04626 676-1255): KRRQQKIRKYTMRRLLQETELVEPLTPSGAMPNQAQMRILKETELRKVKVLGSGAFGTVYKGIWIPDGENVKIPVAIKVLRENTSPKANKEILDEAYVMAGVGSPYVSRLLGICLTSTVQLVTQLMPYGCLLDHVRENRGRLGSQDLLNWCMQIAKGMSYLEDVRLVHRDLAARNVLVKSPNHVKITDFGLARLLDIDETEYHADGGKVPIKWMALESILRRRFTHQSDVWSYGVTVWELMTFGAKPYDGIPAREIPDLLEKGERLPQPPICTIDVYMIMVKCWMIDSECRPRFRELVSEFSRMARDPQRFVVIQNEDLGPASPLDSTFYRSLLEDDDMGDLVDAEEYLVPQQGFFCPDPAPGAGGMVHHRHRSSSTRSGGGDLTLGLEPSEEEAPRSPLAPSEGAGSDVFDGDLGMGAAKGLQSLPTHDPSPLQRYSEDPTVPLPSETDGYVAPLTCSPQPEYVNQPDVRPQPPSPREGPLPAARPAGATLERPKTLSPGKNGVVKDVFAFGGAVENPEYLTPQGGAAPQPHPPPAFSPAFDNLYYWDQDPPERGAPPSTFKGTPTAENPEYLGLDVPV

IC50 (HER2 kinase): 0.0185 µM
IC50 (BT-474 cells [3]; BT-474, MTT, 48 h (Table S8), read-out: Cell growth inhibition IC50): 3.5 µM
IC50 (BT-474 cells [3]; BT-474, Table S9, read-out: IC50): 3.5 ± 0.1 µM
SMILES: O=C1C[C@@H](c2ccc(O[C@@H]3O[C@H](CO)[C@@H](O)[C@H](O)[C@H]3O)cc2)Oc2cc(O)ccc21 [Liquiritin]
total expression levels of HER2 protein [1]: comparable suppressive effects
HER2 phosphorylation ([1]; vs vehicle): significantly inhibited HER2 phosphorylation
early apoptosis (Annexin V+/PI−) cells (BT-474 cells [2]): 22.05%
late apoptosis (Annexin V+/PI+) cells (BT-474 cells [2]): 11.44%
necrosis (BT-474 cells [2]): 3.7%
reduction in migration (SKBR3 cells): approximately 23%
